From article PMC12380353, “MK-8527 is a novel inhibitor of HIV-1 reverse transcriptase translocation with potential for extended-duration dosing” (PLOS Biology, 2025)
Where “and” joins values, the source holds several entries; their conditions need not be identical. Equal entries are not always repeated.

Columns and labels:
HIV-1 [1] = experiment: Multicycle antiviral assay in MT4-GFP cells; format: cell-based; settings: 10% NHS
Protocol: Compounds were evaluated for their ability to prevent HIV-1 infection in MT4-GFP cells as described in Diamond, and colleagues. HIV-1 replication was monitored using the MT4-gag-GFP clone D3, and MT4 cells with a GFP reporter gene, the expression of which is dependent on the HIV-1 expressed proteins tat and rev. […] Proviral variants used for these studies were generated by site-directed mutagenesis in the WT R8 proviral plasmid. Virus was produced by transfection in 293T cells.
Briefly, MT4-GFP cells were cultured overnight with the appropriate HIV-1 variant at an approximate multiplicity of infection of 0.01. After approximately 19 h of infection, the cells were washed and resuspended in assay media containing 10% normal human serum (NHS) before being added to 384-well compound plates containing 10-point serial 3-fold dilutions of compound. Controls included no inhibitor (dimethyl sulfoxide [DMSO] only) and a combination of 3 antiviral agents, efavirenz, indinavir, and an integrase strand transfer inhibitor, L-002254051, at final concentrations of 4 µM each. The infected or treated cells were cultured at 37 °C, 5% CO2, and 90% humidity until evaluation of infection was conducted at approximately 48 and 72 h post-infection by counting the number of GFP cells in each well using an Acumen eX3 scanner (SPT Labtech; Melbourn, UK). The reproductive ratio, R, was calculated by dividing the number of infected cells at 72 h by the number at 48 h post-infection. The percentage inhibition caused by a test compound was calculated by the following formula:
inhibition = [1−(Rtest compound − Rpositive control)]/(RDMSO only − Rpositive control) × 100%\]
The dose–response curves of each test compound were plotted as percentage inhibition versus the test concentration.

HIV-1 [2] = experiment: microbe, parasite or virus in culture
Protocol: IC50 values were determined, and a persistence ratio was calculated for each compound.
Assay media in each well were then evacuated and the cells resuspended using the gentle setting on the BlueWasher (BlueCatBio; Lebanon, NH, USA). Centrifugation and wash steps were repeated to ensure removal of extracellular compound.
MT4-GFP cells were infected with WT R8 virus, and PBMCs were infected with pNLG1-P2A-GFP. […] IC50 values were determined by nonlinear 4-parameter curve fitting of the data. A persistence ratio was calculated for each compound by dividing the IC50 from variable B (IC50B) by the IC50 from variable A (IC50A).

HIV RT = molecular target: T1, HIV RT (Human immunodeficiency virus type 1 group M subtype B, UniProt P04585); experiment: Iron footprinting assay of RT translocation state; format: biochemical
T1 construct: HIV RT (final concentration, 1,200 nM)
Protocol: The translocation state of RT was assessed with a site-specific iron footprinting assay adapted from previous work. Primer and template used for this assay are described in Fig 7A. The presence of Fe^2+ ions in the reaction generated hydroxyl radicals that cleaved the DNA template in a site-specific manner at the nucleotide closest to the RNase H active site. In addition to an RT inhibitor in the reaction, dTTP, the subsequent dNTP, was provided in dose titration to force the translocation of the 3′-primer terminus from the pre-translocation N-site to the post-translocation P-site.
(final concentration, 1 µM), or ddATP (final concentration, 5 µM), Td43/Pd30 pre-annealed primer and template (final concentration, 200 nM based on Cy3-labeled Td43 concentration), and dTTP titrated at various concentrations. All reagent stocks were in a base assay buffer consisting of 120 mM Tris pH 7.5, 20 mM NaCl, and 6 mM MgCl2 in nuclease-free water. […] The reaction was then heated to 37 °C for 5 min before quenching 1:1 with gel-loading dye followed by heating at 95 °C for 10 min. Samples were stored at −20 °C until being resolved by polyacrylamide gel electrophoresis with 7 M urea.

[3] = MK-8527-TP in PBMCs of rhesus monkeys after oral dosing; format: in vivo; settings: oral MK-8527 50 mg/kg
Protocol: The intracellular concentration of MK-8527-TP was determined by an LC–MS/MS assay. LC–MS/MS analysis was performed on a Acquity UPLC system (Waters Corporation; Milford, MA, USA) interfaced to an API-5500 mass spectrometer using a TurboIonSpray source (Sciex, Framingham, MA, USA) in positive ionization mode. Separation of MK-8527-TP was achieved on a BioBasic AX column (2.1 × 100 mm, 5 µm; Thermo Fisher Scientific) at 45 °C using gradient elution with mobile phases consisting of 70% water to 30% acetonitrile containing 10 mM ammonium acetate (solvent A) and 70% water to 30% acetonitrile containing 20 mM ammonium acetate, 1.5% ammonium hydroxide (NH4OH) (v/v), and 10% isopropyl alcohol (IPA) (v/v) (solvent B) at a flow rate of 0.75 mL/min. The chromatography was run as follows: The column was equilibrated with 97% A, and after sample injection 97% A was maintained for 0.10 min before concentration was increased linearly to 100% B until 3.00 min, followed by a hold at 100% B until 3.50 min. The column was then washed by alternating linear ramps from 97% A to 100% B up to 4.10 min, then returned to the initial conditions at 4.30 min and kept for an additional 1.20 min. The total run time was 5.50 min. Quantification was performed by monitoring the transitions of m/z 548.9 to 169.1 for MK-8527-TP. The method was linear across a concentration range of 1–5,000 nM in cell samples across species. The method’s lower limit of quantification was between 1 and 5 nM depending on the assay volumes of cell suspension. Analyte concentrations in cell samples across species were determined from the standard curves using linear regression with 1/×2 weighting.
PBMCs were isolated from heparinized monkey blood using the following protocol. To begin, blood samples (approximately 12–18 mL) were diluted with an equal volume of calcium- and magnesium-free PBS at pH 7.4 and gently mixed. Separation of PBMCs from the diluted blood was achieved using 50 mL AccuSpin tubes loaded with Histopaque-1077 lymphocyte separation medium (both: Thermo Fisher Scientific). Samples were centrifuged at 800g for 15 min at room temperature. The resulting plasma/buffer supernatant was removed without disturbing the PBMC interface. Next, the PBMC interface was removed with a pipette, and the cells were washed by the addition of calcium- and magnesium-free PBS (pH 7.4) to a final volume of 15 mL. PBMCs were harvested by centrifugation at 250g for 20 min at room temperature. The supernatant was decanted with care taken not to disturb the PBMC pellet, and the wash step was repeated once (250 × g for 15 min). After the second wash, the cell pellet was resuspended in 7 mL of calcium- and magnesium-free PBS, and an aliquot was removed for cell counting. PBMCs were harvested from the remaining cell suspension by centrifugation at 250g for 15 min at room temperature. The supernatant was removed, and the cell pellet was resuspended in 0.1–0.3 mL of methanol and water at a 70:30 ratio. Cell suspensions were stored at […] prior to analysis.

SMILES | IC50 (HIV-1 [1]; Human immunodeficiency virus 1, WT HIV-1, multicycle assay) [nM] | MT4-GFP IC50 (HIV-1 [1]; WT HIV-1, multicycle assay) | IC50 (HIV-1 [1]; WT HIV-1, multicycle assay, listed as MK-8527) [nM] | IC50 (HIV-1 [2]; Human immunodeficiency virus 1, 48 h, read-out: Persistence assay IC50B, MT4-GFP cells) [nM] | IC50 (HIV-1 [2]; Human immunodeficiency virus 1, read-out: Persistence assay IC50A, MT4-GFP cells) [nM] | Translocation state of RT (HIV RT; 1 µM MK-8527-TP or ISL-TP, 5 µM ddATP, absence or presence of dTTP) | dTTP concentration above which post-translocation state products (−17) began accumulating (HIV RT; 1 µM inhibitor) [µM] | Arithmetic Mean Concentration in PBMCs ([3]; 2 hr) [µM] | Concentration in PBMCs, individual subjects ([3]; 2 hr) | Arithmetic Mean Concentration in PBMCs ([3]; 24 hr) [µM] | Concentration in PBMCs, individual subjects ([3]; 24 hr) | Arithmetic Mean Concentration in PBMCs ([3]; 72 hr) [µM] | Concentration in PBMCs, individual subjects ([3]; 72 hr) | Arithmetic Mean Concentration in PBMCs ([3]; 168 hr) [µM] | Concentration in PBMCs, individual subjects ([3]; 168 hr)
C#C[C@]1(CO)O[C@@H](n2ccc3c(N)nc(Cl)nc32)C[C@@H]1O [Compound 12, (2R,3S,5R)-5-(4-amino-2-chloro-7H-pyrrolo[2,3-d]pyrimidin-7-yl)-2-ethynyl-2-(hydroxymethyl)tetrahydrofuran-3-ol] | 3.4 | single-digit nanomolar potency | 3.37 ± 1 | 223 ± 104 | 7.2 ± 2.3 | – | – | – | – | – | – | – | – | – | –
C#C[C@]1(COP(=O)(O)OP(=O)(O)OP(=O)(O)O)O[C@@H](n2ccc3c(N)nc(Cl)nc32)C[C@@H]1O [MK-8527-TP] | – | – | – | – | – | remained in a pre-translocation (−18) state | > 6.2 | 11.11 | 18.77 µM and 6.47 µM and 11.31 µM | 15.02 | 15.33 µM and 20.00 µM and 11.04 µM | 2.78 | 5.67 µM and 2.28 µM and 1.67 µM | 0.66 | 1.83 µM and 0.38 µM and 0.40 µM
